Test results published in patent US20230091810A1, “FIRST-IN-CLASS OF SHMT2 AND MTHFD2 INHIBITORS AS ANTITUMOR AGENTS” (Duquesne University of the Holy Spirit, priority 2017, published 2023).

Columns and labels:
[1] = biological target: T1, SHMT2 (Homo sapiens, UniProt P34897); assay: in vitro inhibition of purified SHMT2, coupled SHMT2-MTHFD2 assay with NADH readout; conditions: purified N-terminally His-tagged enzyme; compounds as monoglutamates; * designates one experiment
T1 sequence (P34897 30-504): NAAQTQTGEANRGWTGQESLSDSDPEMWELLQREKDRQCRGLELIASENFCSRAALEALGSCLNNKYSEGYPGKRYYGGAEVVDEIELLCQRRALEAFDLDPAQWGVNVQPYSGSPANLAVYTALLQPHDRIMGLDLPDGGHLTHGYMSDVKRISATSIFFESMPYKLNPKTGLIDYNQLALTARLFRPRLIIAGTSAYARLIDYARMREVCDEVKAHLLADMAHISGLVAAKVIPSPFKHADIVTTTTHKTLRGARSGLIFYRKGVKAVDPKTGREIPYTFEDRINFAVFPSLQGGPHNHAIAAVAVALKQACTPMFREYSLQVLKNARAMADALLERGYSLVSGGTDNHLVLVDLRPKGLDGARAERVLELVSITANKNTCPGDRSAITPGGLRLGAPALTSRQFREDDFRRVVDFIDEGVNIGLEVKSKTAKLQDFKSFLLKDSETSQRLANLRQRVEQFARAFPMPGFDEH

[2] = system: H460 cells; assay: glycine/nucleoside protection of growth inhibition in H460 cells; type: cell-based, human
Method: We also tested the protective effects of AICA (320 µM) which is metabolized to AICAR (ZMP) (AICARFTase substrate), thus circumventing the GARFTase step in de novo purine biosynthesis (27) (see FIG. 1). […] Analogous results were obtained with HCT116 and MIA PaCa-2 tumor cells (see FIG. 14).
(§1) For proliferation assays of the HCT116, H460, and MIA PaCa2 tumor cell lines, the cells were plated in 96-well plates in an identical manner to the CHO experiments, except that the maximal drug concentration was increased to 10 µM. Glycine/nucleoside protection experiments in CHO and tumor cell lines were performed in folate- and glycine-free RPMI 1640/10% dialyzed fetal bovine serum supplemented with 25 nM leucovorin without additions, or in the presence of adenosine (60 µM), thymidine (10 µM), glycine (130 µM) and/or 5-aminoimidazole-4-carboxamide (AICA) (320 µM). Growth of metabolite-treated cells was normalized to controls treated with metabolites and vehicle (i.e., DMSO) both singly and in combination. Treatments with all metabolites were performed in parallel on the same plate for a given drug.

[3] = system: HPAC (PaC); assay: proliferation assay, HPAC pancreatic cancer cells; type: cell-based, human; conditions: folate-/glycine-free RPMI1640 with 25 nM leucovorin; read-out: IC50s (SE) HPAC (PaC)
Method: (§2) Proliferation assays were performed with engineered Chinese hamster ovary (CHO) cell lines R2 (transporter-null), PC43-10 (expresses RFC only), RT16 (FRα only), and R2/PCFT4 (PCFT only) cultured in folate-/glycine-free RPMI1640 supplemented with 25 nM leucovorin. Additional results are shown for HCT116 (colon tumor cells (CTC)), IGROV1 (epithelial ovarian cancer (EOC) cells), H460 (non-small cell lung cancer (NSCLC) cells), MIAPaCa-2 (pancreatic cancer (PaC) cells), and HPAC (PaC).
as §1

[4] = system: PC43-10 (RFC) (CHO); assay: proliferation assay, PC43-10 CHO cells expressing RFC only; type: cell-based, Chinese hamster; conditions: folate-/glycine-free RPMI1640 with 25 nM leucovorin; 96 h; drug 0-1000 nM; read-out: IC50s (SE) PC43-10 (RFC) (CHO)
Method: as §2
(§3) Cell culture and proliferation/protection assays. The HCT116 cell lines including the serine hydroxymethyltransferase (SHMT) 1, SHMT2, and methylene THF dehydrogenase 2 (MTHFD2) knockout (KO) cells were previously described (47,53). The H460 cell line was obtained from the American Type Culture Collection (Manassas, VA), whereas the MIA PaCa-2 cells were provided by Dr. Yubin Ge (Karmanos Cancer Institute). Cell lines were verified by STR analysis by Genetica DNA Laboratories (Burlington, NC). MTXRIIOua^R2-4 (i.e. R2) Chinese hamster ovary (CHO) cells were generously provided by Dr. Wayne Flintoff (University of Western Ontario) (54). From this parental R2 cell line, human RFC and PCFT were individually transfected to generate the isogenic CHO cell lines designated PC43-10 (RFC) and R2/PCFT4 (PCFT) (55-57). Human tumor cell lines were cultured in folate-free RPMI supplemented with 10% dialyzed fetal bovine serum (Sigma-Aldrich), 1% penicillin/streptomycin solution, 2 mM L-glutamine, and 25 nM leucovorin in a humidified atmosphere at 37° C. in the presence of 5% CO2 and 95% air. The CHO cell lines were cultured in alpha-minimal essential medium (alpha-MEM) supplemented with 10% bovine calf serum, 1% penicillin/streptomycin solution, and 2 mM L-glutamine. Additionally, the transfected CHO cell lines (i.e. R2/PCFT4 and PC43-10) were maintained under continuous selection with 1 mg/ml of G418.
For proliferation assays with the CHO cell lines, the cells were treated with drugs (0-1 µM) in a 96-well plate (2000 cells/well) in glycine-free, nucleoside-free folate-free RPMI supplemented with 10% dialyzed fetal bovine serum, 1% penicillin/streptomycin, 2 mM L-glutamine, and 25 nM leucovorin (final volume 200 µL) over a 96 h incubation period at 37° C. with 5% CO2. […] To quantify viable cells, the media was removed and plates were washed once with 100 µL Dulbecco’s Phosphate-Buffered Saline (PBS), after which 100 µL PBS and 20 µL Cell Titer-blue (Promega) were added. Relative cell numbers were proportional to the fluorescence measured with a fluorescence plate reader (590 nm emission, 560 nm excitation). Background fluorescence (cell-free wells treated with Cell Titer-blue) was subtracted and these corrected values were normalized to results for cells treated in an identical manner without drugs.

[5] = system: MIA PaCa-2 (PaC); assay: proliferation assay, MIA PaCa-2 pancreatic cancer cells; type: cell-based, human; conditions: folate-/glycine-free RPMI1640 with 25 nM leucovorin; 96 h; read-out: IC50s (SE) MIA PaCa-2 (PaC)
Method: as §2, §3, §1

[6] = system: IGROV1 (EOC); assay: proliferation assay, IGROV1 epithelial ovarian cancer cells; type: cell-based, human; conditions: folate-/glycine-free RPMI1640 with 25 nM leucovorin; read-out: IC50s (SE) IGROV1 (EOC)
Method: as §2, §1

[7] = system: RT16 (FR alpha) (CHO); assay: proliferation assay, RT16 CHO cells expressing FR alpha only; type: cell-based, Chinese hamster; conditions: folate-/glycine-free RPMI1640 with 25 nM leucovorin; 96 h; read-out: IC50s (SE) RT16 (FR alpha) (CHO)
Method: as §2
For proliferation assays with the CHO cell lines, the cells were treated with drugs (0-1 µM) in a 96-well plate (2000 cells/well) in glycine-free, nucleoside-free folate-free RPMI supplemented with 10% dialyzed fetal bovine serum, 1% penicillin/streptomycin, 2 mM L-glutamine, and 25 nM leucovorin (final volume 200 µL) over a 96 h incubation period at 37° C. with 5% CO2. The drugs were dissolved in DMSO; an equivalent amount of DMSO was added to the control (no addition) samples. To quantify viable cells, the media was removed and plates were washed once with 100 µL Dulbecco’s Phosphate-Buffered Saline (PBS), after which 100 µL PBS and 20 µL Cell Titer-blue (Promega) were added. Relative cell numbers were proportional to the fluorescence measured with a fluorescence plate reader (590 nm emission, 560 nm excitation). Background fluorescence (cell-free wells treated with Cell Titer-blue) was subtracted and these corrected values were normalized to results for cells treated in an identical manner without drugs.

[8] = system: human MIA PaCa-2 pancreatic adenocarcinoma xenografts; assay: in vivo efficacy trial with MIA PaCa-2 pancreatic cancer xenografts; design: species or system SCID mice
Method: Female ICR SCID mice (10 weeks old; 19 g average body weight) were implanted bilaterally with human MIA PaCa-2 tumors. […] The mice were weighed and tumors were measured with a caliper two-to-three times weekly; mice were sacrificed when the cumulative tumor burden reached 1500 mg. Tumor weights were estimated from two-dimensional measurements, where tumor mass (in mg) = (a x b^2)/2, and a and b are the tumor length and width in mm, respectively. The tumor masses from both tumors on each mouse were added together, and the total mass per mouse was used for calculations of anti-tumor activity. Quantitative end-points include: (i) tumor growth delay [T-C, where T is the median time in days required for the treatment group tumors to reach a predetermined size (e.g., 1000 mg), and C is the median time in days for the control group tumors to reach the same size; tumor-free survivors are excluded from these calculations]; and (ii) T/C (in percent) when treatment (T) and control (C) groups for the control groups reached 700 mg in size (exponential growth phase). The median value of each group was determined (including zeros). Mouse weights were monitored as a gauge of drug toxicity.
Female ICR SCID mice (10 weeks old; 19 g average body weight) were implanted bilaterally with human MIA PaCa-2 PaC tumors.
In vivo efficacy trial with MIA PaCa-2 pancreatic cancer xenografts. Methods for in vivo maintenance of MIA PaCa-2 tumor xenografts and drug efficacy evaluations are analogous to those previously described (58, 62-67). MIA PaCa-2 human pancreatic cancer cells (5 × 10^6 cells/flank) were bilaterally implanted subcutaneously with tumor fragments (30-60 mg) with a 12-gauge trocar in female […] SCID mice (NCI Animal Production Program). The mice were 10 weeks old on day 0 (tumor implant) with an average body weight of 19 g. For the efficacy trial, the mice were maintained on either a folate-deficient diet from Harlan-Teklad (TD.00434) starting 14 days before subcutaneous tumor implant to ensure serum folate levels would approximate those of humans. A separate cohort of mice was fed a folate-replete control diet from Lab Diet (5021). Mice were supplied with food and water ad libitum. Serum folate concentrations were monitored prior to tumor implant and post study by Lactobacillus casei bioassay (68). The mice in each group (folate-deficient and standard diet) were pooled before unselective distribution to the treatment and control groups. […] The drugs were dissolved in 5% ethanol (v/v), 1% Tween-80 (v/v), and 0.5% NaHCO3 and were administered intravenously (0.2 ml/injection). The mice were weighed and tumors were measured with a caliper two-to-three times weekly; mice were sacrificed when the cumulative tumor burden reached 1500 mg. Tumor weights were estimated from two-dimensional measurements, where tumor mass (in mg) = (a × b^2)/2, and a and b are the tumor length and width in mm, respectively. The tumor masses from both tumors on each mouse were added together, and the total mass per mouse was used for calculations of anti-tumor activity. Quantitative end-points include: (i) tumor growth delay [T-C, where T is the median time in days required for the treatment group tumors to reach a predetermined size (e.g., 1000 mg), and C is the median time in days for the control group tumors to reach the same size; tumor-free survivors are excluded from these calculations]; and (ii) T/C (in percent) when treatment (T) and control (C) groups for the control groups reached 700 mg in size (exponential growth phase). The median value of each group was determined (including zeros). Mouse weights were monitored as a gauge of drug toxicity.

[9] = IV, AGF291 Q6dx3 start d3, total 23.5 mg/kg, Gemcitabine Q4dx4 start d3, total 480 mg/kg

## Nc1nc2[nH]c(CCCc3ccc(C(=O)N[C@@H](CCC(=O)O)C(=O)O)s3)cc2c(=O)[nH]1 [AGF94, reference compound]
[1]
  Ki SHMT2: no inhibition
[2]; AICA 320 µM
  protection from growth inhibition by AICA: completely protective
[2]; adenosine 60 µM, up to 10 µM drug
  protection from growth inhibition by adenosine: fully protective
[2]; glycine 130 µM
  protection from growth inhibition by glycine: no effect

## Nc1nc2ccn(CCCc3ccc(C(=O)N[C@@H](CCC(=O)O)C(=O)O)c(F)c3)c2c(=O)[nH]1 [AGF359]
[3]
  IC50: 167 nM
[4]
  IC50: 233 nM
[5]
  IC50: > 1000 nM
[6]
  IC50: 229 nM
[7]
  IC50: 525 nM

## Nc1ccn([C@@H]2O[C@H](CO)[C@@H](O)C2(F)F)c(=O)n1 [Gemcitabine, reference compound]
[8]; [9]
  Mean Body Weight Loss (g/mouse): -2.4 g/mouse
  Percent Body Weight Loss: -12.2%
[8]; day 14, control cohort 1321 mg
  median tumor burden on day 14: 255 mg
[8]; day 16, IV, AGF291 total 23.5 mg/kg, Gemcitabine total 480 mg/kg
  Median Tumor Burden in mg on d16 (range): 445 (150-527) mg
[8]; day 52, mice tumor free/total
  Tumor Free on d52: 0/5
[8]; median T-C to reach 1000 mg, AGF291 total 23.5 mg/kg, Gemcitabine total 480 mg/kg
  Tumor Growth Delay (T-C): 7.5 days
[8]; median, IV, AGF291 total 23.5 mg/kg, Gemcitabine total 480 mg/kg
  Time to 1000 mg in days (range): 20 (19-21) days
[8]; nadir on day 17 for AGF291, day 6 for GEM, completely reversible after cessation of therapy
  weight loss (median nadir): 12%
[8]; treated/control median tumor burden, AGF291 7.75 mg/kg/inj Q6dx3, GEM 120 mg/kg/inj every 4 days, start day 3
  T/C%: 26%
